Data reported in patent publication US20090099169A1, “Benzofuran Compounds As EP1 Receptor Antagonists” (GLAXO GROUP LIMITED, priority 2006, published 2009).
Where a name gives a salt, the structure may show the parent alone.

Molecular target: T1, human EP1 receptor (Homo sapiens, UniProt P34995)
T1 sequence (P34995 1-402): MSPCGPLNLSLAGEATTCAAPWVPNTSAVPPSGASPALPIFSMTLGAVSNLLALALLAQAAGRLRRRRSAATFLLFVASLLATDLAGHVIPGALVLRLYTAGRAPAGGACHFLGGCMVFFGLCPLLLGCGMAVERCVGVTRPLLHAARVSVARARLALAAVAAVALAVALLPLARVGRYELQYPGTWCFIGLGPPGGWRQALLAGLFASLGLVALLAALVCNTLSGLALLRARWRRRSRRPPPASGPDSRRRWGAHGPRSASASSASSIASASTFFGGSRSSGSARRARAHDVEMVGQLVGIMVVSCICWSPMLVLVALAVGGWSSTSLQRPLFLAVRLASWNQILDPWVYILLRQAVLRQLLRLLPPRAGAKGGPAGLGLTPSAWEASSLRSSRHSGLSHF
Assay: Binding assay for the human prostanoid EP1 receptor (radioligand competition)
Parameters: expressed in transfected cells; host or cells: CHO-K1 (membranes)
Conditions: CHO-K1 membranes; [3H]-PGE2 for Examples 1-17, 19, 33, 34, 60 and 61, 3-{2-[5-Bromo-2-(2,4-difluorobenzyloxy)-phenyl]-5-methyl-pyrrol-1-yl}-6-[3H3-methoxy]methoxy-benzoic acid for the remaining; averages of a number of experiments; read-out: pIC50 value (binding assay for the human prostanoid EP1 receptor) (converted)
Procedure, shortened: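 Membranes from CHO-K1 cells stably expressing human EP1, in pH 6 MES buffer with 10 mM MgCl2. Competition with [3H]-PGE2 (3 nM final) for 30 min at 30 °C, or alternatively with a tritiated benzoic-acid ligand (0.2 nM final) for 45 min at 37 °C; filtration and scintillation counting, IC50 by non-linear fitting.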

Row | SMILES | IC50
1 | CC(C)c1cc2cc(Cl)cc(Cc3ccc(C(=O)O)o3)c2o1 [Example 1, 5-{[5-Chloro-2-(1-methylethyl)-1-benzofuran-7-yl]methyl}-2-furancarboxylic Acid] | ≤ 100 nM
2 | Cc1cc(C(=O)O)nn1Cc1cc(Cl)cc2cc(C(C)C)oc12 [Example 3, 1-{[5-Chloro-2-(1-methylethyl)-1-benzofuran-7-yl]methyl}-5-methyl-1H-pyrazole-3-carboxylic Acid] | ≤ 100 nM
3 | CCNCc1ccc(NC(=O)c2cc(C)n(Cc3cc(Cl)cc4cc(C(C)C)oc34)n2)cc1 [Example 15, 1-{[5-Chloro-2-(1-methylethyl)-1-benzofuran-7-yl]methyl}-N-{4-[(ethylamino)methyl]phenyl}-5-methyl-1H-pyrazole-3-carboxamide hydrochloride] | ≤ 100 nM
4 | Cc1cc(C(=O)Nc2ccc(CN3CCC(O)CC3)cc2)nn1Cc1cc(Cl)cc2cc(C(C)C)oc12 [Example 16, 1-{[5-Chloro-2-(1-methylethyl)-1-benzofuran-7-yl]methyl}-N-{4-[(4-hydroxy-1-piperidinyl)methyl]phenyl}-5-methyl-1H-pyrazole-3-carboxamide hydrochloride] | ≤ 100 nM
5 | Cc1cc(C(=O)Nc2ccc(CN3CC[C@@H](O)C3)cc2)nn1Cc1cc(Cl)cc2cc(C(C)C)oc12 [Example 17, 1-{[5-Chloro-2-(1-methylethyl)-1-benzofuran-7-yl]methyl}-N-(4-{[(3R)-3-hydroxy-1-pyrrolidinyl]methyl}phenyl)-5-methyl-1H-pyrazole-3-carboxamide hydrochloride] | ≤ 100 nM
6 | Cc1cc(C(=O)NN2CCOCC2)nn1Cc1cc(Cl)cc2cc(C3CCCCC3)oc12 [Example 28, 1-[(5-Chloro-2-cyclohexyl-1-benzofuran-7-yl)methyl]-5-methyl-N-4-morpholinyl-1H-pyrazole-3-carboxamide] | ≤ 100 nM
